Square brackets hold non-standard residues; d marks the D form. Peptide text beside a SMILES is read from it. Sar = CNCC(=O)O
Molecular target: T1, Solute carrier family 15 member 1 (Homo sapiens) (UniProt P46059)
T1 sequence (whole entry): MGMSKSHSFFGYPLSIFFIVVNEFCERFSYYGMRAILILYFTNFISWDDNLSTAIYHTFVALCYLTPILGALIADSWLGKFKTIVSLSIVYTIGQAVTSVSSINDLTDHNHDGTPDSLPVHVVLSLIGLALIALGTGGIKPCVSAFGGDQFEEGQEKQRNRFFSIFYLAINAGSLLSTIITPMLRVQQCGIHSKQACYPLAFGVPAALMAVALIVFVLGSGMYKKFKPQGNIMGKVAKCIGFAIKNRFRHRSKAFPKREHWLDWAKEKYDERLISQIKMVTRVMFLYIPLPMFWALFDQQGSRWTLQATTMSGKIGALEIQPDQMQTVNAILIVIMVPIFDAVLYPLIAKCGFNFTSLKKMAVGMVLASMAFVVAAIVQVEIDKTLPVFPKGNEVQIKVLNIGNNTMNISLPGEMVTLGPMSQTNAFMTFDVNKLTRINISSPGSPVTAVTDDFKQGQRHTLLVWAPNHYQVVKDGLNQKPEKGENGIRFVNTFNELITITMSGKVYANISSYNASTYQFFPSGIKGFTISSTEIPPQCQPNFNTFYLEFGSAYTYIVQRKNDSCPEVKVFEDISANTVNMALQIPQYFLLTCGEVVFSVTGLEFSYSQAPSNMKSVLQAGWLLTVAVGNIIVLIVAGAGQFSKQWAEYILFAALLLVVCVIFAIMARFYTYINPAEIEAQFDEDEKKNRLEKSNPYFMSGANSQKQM
Test: TP_TRANSPORTER: uptake in Xenopus laevis oocytes
Type: functional, cell-based
Details: Oocyte

CN(CC(=O)O)C(=O)CN (H-Gly-[Sar]-OH)
Activity: substrate [+]

Source: ChEMBL document CHEMBL2073858, “Cloning and characterization of a pH-sensing regulatory factor that modulates transport activity of the human H+/peptide cotransporter, PEPT1” (Biochem Biophys Res Commun, 1997)
